Assay results published in article PMC9317397, “Design and Synthesis of Hepatitis B Virus (HBV) Capsid Assembly Modulators and Evaluation of Their Activity in Mammalian Cell Model” (Pharmaceuticals, 2022).
“Also recorded” adds a separate entry of the source. Like-named read-outs stand apart in the source and are kept apart here.

What was measured:
[1] = system: HBV; conditions: HepG2.2.15 cells; for HBV DNA, % from control: six days, secreted virion DNA
[2] = target: HBV capsids (HBc assembly products) (Hepatitis B virus genotype D subtype ayw, UniProt P03146, A80I/T33N/V74G); assay: Electron microscopy of HBc assembly products purified from treated BHK-21 cells; type: cell-based; conditions: 50 μM, 24 h, sucrose cushion pellet
HBV capsids (HBc assembly products), sequence (P03146 whole entry A80I/T33N/V74G, looked up): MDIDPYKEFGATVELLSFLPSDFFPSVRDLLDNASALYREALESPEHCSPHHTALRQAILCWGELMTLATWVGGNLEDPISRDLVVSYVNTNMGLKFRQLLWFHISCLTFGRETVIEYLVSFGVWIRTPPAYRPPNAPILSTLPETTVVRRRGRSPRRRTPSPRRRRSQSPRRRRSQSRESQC

[3] = system: BHK-21 cells; assay: MTT viability assay in BHK-21 cells; type: cell-based, hamster; conditions: 6.125–200 µM, 24 h
Method: BHK-21 cells were incubated with different concentrations (6.125, 12.25, 25, 50, 100, and 200 µM) of the respective compounds and the cell viability was calculated as a percentage from untreated cells (100%) (Figure 7). In general, the results confirmed the morphological observation of relatively low cytotoxicity for tested compounds at concentrations below 100 µM.
Additionally, cell viability was determined by tetrazolium salt-based assay using the Vybrant MTT Cell Proliferation kit (Thermo Fisher Scientific, Waltham, MA, USA) or more sensitive CCK-8 kit (Abcam). First, the cell numbers and protocol were optimized for BHK-21 and HepG2.2.15 cells, as indicated in the MTT assay kit or CCK-8 reagent manufacturer’s protocol, and standard curves with OD values were created and evaluated.
In order to evaluate the toxicity of selected HAP compounds in the medium, 1.3 × 10^4 BHK-21 were seeded per well in 96-well plates and treated with the studied compounds for 24 h at concentrations 6.125; 12.25; 25; 50; 100; and 200 μM. Control cells without HAP compounds and MTT-free cell media were included in the experiments. The MTT test was performed according to the full protocol version (Thermo Fisher Scientific).

[4] = system: HBV; assay: microbe, parasite or virus in culture; conditions: Hepatitis B virus, HepG2.2.15, 144 h, read-out: EC50 (50% reduction of HBV DNA), HepG2.2.15 cells, six days, 0–20 µM
[5] = target: HBV capsid assembly (full-length HBc protein, genotype D1) (Hepatitis B virus genotype D subtype ayw, UniProt P03146, A80I/T33N/V74G); assay: HBV capsid assembly in SFV1/HBc-infected HBc-producing BHK-21 cells, native agarose gel anti-HBc immunoblot; type: cell-based; conditions: HBc-producing BHK-21 cells; for Type of effect on HBV capsid assembly in dose-dependent experiments: 0.1–50 µM, 24 h (Figure 6); for Effect on Capsid Assembly / Effect on Capsid Assembly, Starting Concentration: 24 h, native agarose immunoblot
HBV capsid assembly (full-length HBc protein, genotype D1), sequence (P03146 whole entry A80I/T33N/V74G, looked up): as above

[6] = target: HBc protein (Hepatitis B virus genotype D subtype ayw, UniProt P03146, A80I/T33N/V74G); assay: Anti-HBc immunostaining and confocal microscopy of HBc-producing BHK-21 cells; type: cell-based; conditions: 20 μM and 50 μM, 24 h
HBc protein, sequence (P03146 whole entry A80I/T33N/V74G, looked up): as above

[7] = system: HepG2.2.15 cells; assay: MTT viability test in HepG2.2.15 cells (TC50); type: cell-based, human; conditions: 48 h, 0–200 µM
Method: In order to compare the cytotoxicity of compounds 1d and 1e in HBV producing HepG2.2.15 cells, the toxic concentrations (TC50 values) were estimated (Figure 9B,C).
In order to calculate the median of the toxic concentration (TC50) of the compounds, 1.33 × 10^5 HepG2.2.15 cells per well were seeded into a 24-well plate. After 24 h, the cells were treated with the test compounds at different concentrations (0, 50, 100, 150, 200 μM) and incubated for 48 h at 37 °C. All experiments were carried out in three identical repeats and the coefficient of variation and standard deviation were calculated from at least two independent experiments.
The percent inhibition at each compound concentration was calculated by normalization of the signals to the signals from non-treated HepG2.2.15 cells. […] Data points and error bars represent the means and standard deviations from at least two independent experiments, respectively. Comparisons between data groups were performed using the unpaired t test, with p values < 0.05 being considered statistically significant.

[8] = system: BHK-21 cells; assay: Cytopathic effect (cell morphology, proliferation, trypan blue) in non-infected BHK-21 cells; type: cell-based, hamster; conditions: 24 h
Method: To define HAP compound non-toxic concentrations for initial studies, non-infected BHK-21 cells were incubated with compounds at four different concentrations for 24 h (25 μM, 50 μM, 100 μM, and 200 μM), and the cytopathic effects were evaluated by analysis of cell morphology and proliferation changes. […] 1c, 1j, 1k and 4a, and 7b. The reference comp.
The cytopathic effect of the compounds was estimated by phase contrast microscopy and standard trypan blue staining, and the cells were counted using an automatic cell counter (Invitrogen). BHK-21 and HepG2.2.15 cells were incubated for 24 h with the studied compounds at […] (25, 50, 100, 150 and 200 μM) and the cell morphology was controlled under microscope to evaluate cytopathic effects (Table 1, the highest non-toxic concentration).

[9] = system: primary hepatocytes; set-up: method as in PMID 25921762; conditions: cited from earlier work

Compound | SI (TC50/EC50) [1] | HBV DNA, % from control ([1]; 20 µM) [%] | Decrease in the amount of HBV virion release compared with control ([1]; Figure 8) [%] | Morphology of HBc assembly products by electron microscopy [2] | Cell viability compared to untreated control [3] | EC50 [4] [µM] | Type of effect on HBV capsid assembly in dose-dependent experiments [5] | Effect on capsid production / mobility in initial test ([5]; 1–50 μM, 24 h (Figure 5)) | Effect on Capsid Assembly [5] | Effect on Capsid Assembly, Starting Concentration [5] [µM] | Intracellular localization of HBc [6] | TC50 [7] [µM] | Concentration revealing cell toxicity signs ([8]; BHK-21 cells) [µM] | The Highest Non-Toxic Concentration ([8]; non-infected BHK-21 cells, no noticeable cytopathic effect) [µM] | HBV DNA, % from control ([1]; 10 µM) [%] | Toxic concentration [9] [µM]
CCOCCOC(=O)C1=C(C)NC(c2ncc(F)cc2F)=NC1c1ccc(F)cc1Cl (centres unmarked) [1d] | 28 | 6.5 | ≤ 93.5 | irregularly shaped structures that resembled capsids of the wrong size and incorrect symmetry, as well as the capsid aggregates | did not demonstrate the difference in cell viability | 6.24 | dose-dependent HBc products accumulation | misfolding of the HBV capsid | HBc accumulation, aggregates/or incorrect capsid structures | 5 | speckled dot pattern of HBc distribution in the cytoplasm; also recorded: blocked the intranuclear transport of HBc protein | 175 |  |  |  | 
COC(=O)C1=C(C)NC(c2ncc(F)cc2F)=NC1c1ccc(F)cc1Cl (centres unmarked) [1a, Bay 41-4109, reference compound] |  |  |  |  |  | 0.35 | dose-dependent HBc signal decrease |  | Dose dependent capsid signal decrease | 1 |  |  | 100 | 100 | 2.5 | 5.06
